Reference: patent EP2865421A1, “Bitter taste receptor agonists for topical use” (Albert-Ludwigs-Universität Freiburg, priority 2013, dated 2015)

Experiments:
T2R38 = target: T1, T2R38 (Homo sapiens, UniProt P59533, A49P/I296V); experiment: PTC-induced calcium influx in taster cell line JEG-3 and its inhibition by probenecid; format: cell-based
T1 construct: endogenous in cells; host or cells: JEG-3 (human placental cell line)
T1 sequence (P59533 1-333 A49P/I296V): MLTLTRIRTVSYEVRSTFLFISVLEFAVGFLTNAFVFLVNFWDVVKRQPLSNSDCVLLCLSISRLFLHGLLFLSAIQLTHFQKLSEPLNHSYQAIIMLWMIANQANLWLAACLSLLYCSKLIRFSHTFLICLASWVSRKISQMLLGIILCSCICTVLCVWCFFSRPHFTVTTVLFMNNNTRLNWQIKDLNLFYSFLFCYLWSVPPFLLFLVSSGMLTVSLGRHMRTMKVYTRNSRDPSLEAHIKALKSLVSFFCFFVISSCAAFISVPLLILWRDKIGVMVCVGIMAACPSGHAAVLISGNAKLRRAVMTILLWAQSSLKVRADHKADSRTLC
Protocol: Intracellular Ca^2+ concentration measurements in single cells were carried out using the fluorescence indicator fura-2-am (Invitrogen). Cells were washed with a buffer containing 130 mM NaCl, 5 mM KCI, 10 mM HEPES, 10 mM Glucose and 1 mM CaCl2 adjusted to pH 7.4 and loaded with 2 µM fura-2-am and 0.04% Pluronic F-127 (Invitrogen) for 30 min. After rinsing twice, cells were allowed to de-esterify fura-2-am for 30 min. Measurements were performed with a monochromator-based imaging system attached to an inverted microscope (Axiovert S100, Zeiss). Fluorescence was excited at 340 and 380 nm and emission measured at 510 nm. After 60s, cells were stimulated with various concentrations of diphenidol or amarogentin, 100 µM PTC or the respective solvent control. T2R38 receptor inhibition was performed by pre-incubation of JEG-3 cells for 1h with the T2R38 antagonist probenecid (1 mM) before PTC stimulation. After correction of background fluorescence, the fluorescence ratio was calculated using Axiovision software.

[1] = system: SH-SY5Y neuroblastoma cells; experiment: Calcium imaging (fura-2-am) in SH-SY5Y neuroblastoma cells; format: cell-based, human; conditions: 100 µM diphenidol, significant, maximum stated for all cell lines (Figure 8)
Protocol: (§1) The human keratinocyte cell line HaCaT, the neuroblastoma cell line SH-SY5Y and the placental cell line JEG-3 were from CLS Cell Lines Service (Heidelberg, Germany) and cultured in Dulbecco's modified essential medium (DMEM; Invitrogen) containing 10% fetal calf serum (FCS; PAA, Pasching, Austria) at 37 °C in a humidified atmosphere with 5% CO2. For double fluorescence stainings the cells were seeded in a four-field chamber slides (Thermo Fisher Scientific GmbH; 1 ×10^5 cells/ml). For calcium imaging experiments, cells were seeded on polylysin (Sigma-Aldrich, Munich, Germany) coated cover slips at a density of 1.5 -2x 10^5. After isolation of human primary keratinocytes (hPK) from skin samples, the cells were incubated for 3 days with calcium (2 mM), amarogentin (100 μM) or diphenidol (100 μM) before RNA isolation and determination of the differentiation markers. Intracellular Ca^2+ concentration measurements in single cells were carried out using the fluorescence indicator fura-2-am (Invitrogen). Cells were washed with a buffer containing 130 mM NaCl, 5 mM KCI, 10 mM HEPES, 10 mM Glucose and 1 mM CaCl2 adjusted to pH 7.4 and loaded with 2 μM fura-2-am and 0.04% Pluronic F-127 (Invitrogen) for 30 min. […] Fluorescence was excited at 340 and 380 nm and emission measured at 510 nm. […] After correction of background fluorescence, the fluorescence ratio was calculated using Axiovision software.

LAD-2 human mast cells [2] = experiment: TNF-α release from SP-stimulated LAD-2 mast cells (ELISA); format: cell-based; conditions: SP 2 µM, 24 h, 30 min pre-incubation, amarogentin 136 µM, diphenidol 136 µM, azelastine 24 µM (Figure 14B)
Protocol: (§2) LAD-2 human mast cells (obtained from Dr. A. Kirshenbaum NIH) were cultured in serum-free media (StemPro-34, Gibco, Germany) supplemented with 2mM L-glutamine and 100 ng/ml rhSCF (recombinant human stem cell factor; Cell signaling technologies). The human keratinocyte cell line HaCaT was cultured in Dulbecco's modified essential medium (DMEM; Invitrogen) containing 10% fetal calf serum (FCS; PAA, Pasching, Austria) at 37 °C in a humidified atmosphere with 5% CO2. LAD-2 cells were washed with PBS and resuspended in complete medium. LAD-2 cells (2x10^5 cells /400 µl/well) were plated in 48 well flat bottom Falcon cell culture plates from Becton Dickinson and then stimulated with SP (2 µM, Sigma-Aldrich) for 1 or 24 h. Some cells were pre-incubated for 30 min with amarogentin (136 µM, Phytolab), diphenidol (136 µM, Santa Cruz) or azelastine (24 µM, Sigma) as indicated. The supernatants were collected for further assays. TNF-α, IL-6, IL-8 and MMP-1 release into the supernatant fluid 24 h after cell stimulation (either LAD-2 oder HaCaT cells) were measured by Enzyme-Linked Immunosorbent Assay (ELISA) using a commercial kit from R&D Systems according to the manual instructions.

JEG-3 placental cells = experiment: Calcium imaging (fura-2-am) in JEG-3 placental cells; format: cell-based, human; conditions: 100 µM diphenidol, significant, maximum stated for all cell lines (Figure 8)
Protocol: as §1

HaCaT keratinocytes = experiment: Calcium imaging (fura-2-am) in HaCaT keratinocytes; format: cell-based, human; conditions: for calcium influx: HaCaT cells
Protocol: The human keratinocyte cell line HaCaT, the neuroblastoma cell line SH-SY5Y and the placental cell line JEG-3 were from CLS Cell Lines Service (Heidelberg, Germany) and cultured in Dulbecco's modified essential medium (DMEM; Invitrogen) containing 10% fetal calf serum (FCS; PAA, Pasching, Austria) at 37 °C in a humidified atmosphere with 5% CO2. For double fluorescence stainings the cells were seeded in a four-field chamber slides (Thermo Fisher Scientific GmbH; 1 ×10^5 cells/ml). For calcium imaging experiments, cells were seeded on polylysin (Sigma-Aldrich, Munich, Germany) coated cover slips at a density of 1.5 -2x 10^5. After isolation of human primary keratinocytes (hPK) from skin samples, the cells were incubated for 3 days with calcium (2 mM), amarogentin (100 μM) or diphenidol (100 μM) before RNA isolation and determination of the differentiation markers. Intracellular Ca^2+ concentration measurements in single cells were carried out using the fluorescence indicator fura-2-am (Invitrogen). Cells were washed with a buffer containing 130 mM NaCl, 5 mM KCI, 10 mM HEPES, 10 mM Glucose and 1 mM CaCl2 adjusted to pH 7.4 and loaded with 2 μM fura-2-am and 0.04% Pluronic F-127 (Invitrogen) for 30 min. After rinsing twice, cells were allowed to de-esterify fura-2-am for 30 min. Measurements were performed with a monochromator-based imaging system attached to an inverted microscope (Axiovert S100, Zeiss). Fluorescence was excited at 340 and 380 nm and emission measured at 510 nm. After 60s, cells were stimulated with various concentrations of diphenidol or amarogentin, 100 μM PTC or the respective solvent control. […] receptor inhibition was performed by pre-incubation of JEG-3 cells for 1h with the […] antagonist probenecid (1 mM) before PTC stimulation. After correction of background fluorescence, the fluorescence ratio was calculated using Axiovision software.

[3] = system: human primary keratinocytes (hPKs); experiment: Differentiation marker expression in human primary keratinocytes (RT-PCR); format: cell-based; conditions: 3 days, amarogentin 100 µM, diphenidol 100 µM or calcium 2 mM, vs untreated control (Figure 12)
Protocol: The human keratinocyte cell line HaCaT, the neuroblastoma cell line SH-SY5Y and the placental cell line JEG-3 were from CLS Cell Lines Service (Heidelberg, Germany) and cultured in Dulbecco's modified essential medium (DMEM; Invitrogen) containing 10% fetal calf serum (FCS; PAA, Pasching, Austria) at 37 °C in a humidified atmosphere with 5% CO2. For double fluorescence stainings the cells were seeded in a four-field chamber slides (Thermo Fisher Scientific GmbH; 1 ×10^5 cells/ml). For calcium imaging experiments, cells were seeded on polylysin (Sigma-Aldrich, Munich, Germany) coated cover slips at a density of 1.5 -2x 10^5. After isolation of human primary keratinocytes (hPK) from skin samples, the cells were incubated for 3 days with calcium (2 mM), amarogentin (100 µM) or diphenidol (100 µM) before RNA isolation and determination of the differentiation markers. Reverse transcription PCR was performed as described (Muller et al.,2008). In brief, total RNA was isolated using the Trizol reagent (Invitrogen) according to the manusfacturer's instruction. […] The PCR primers (20 pmol each) used to amplify keratin 10 (KRT10), INV, TGM and ß-actine were already published (Muller et al., 2008). ß-actine was used as internal loading control. After gel electrophoresis quantification was archived with ImageJ software.

LAD-2 cells = format: cell-based, human
Protocol: (§4) The method is based on the bioluminescence measurement of ATP that is present in metabolically active cells. Luciferase catalyzes the formation of light from ATP and luciferin. The emitted light intensity is directly proportional to the ATP concentration and is measured using a luminometer (Sirius HT; MWG).

[4] = system: keratinocyte cell line HaCaT; experiment: IL-8 and MMP-1 release from HaCaT stimulated with histamine and TNF-α (ELISA); format: cell-based, human; conditions: histamine + TNF-α (25 ng/ml), 24 h, amarogentin 136 µM 30 min pre-incubation (Figure 15A)
Protocol: (§3) The Keratinocyte cell line HaCaT (2x10^5 cells /400 µl/well) were plated in 48 well flat bottom Falcon cell culture plates from Becton Dickinson and then stimulated with histamine (100 µl) and TNF-α (25 ng/ml) or IFNγ (200U/ml) for 24 h. Some cells were pre-incubated for 30 min with amarogentin (136 µM, Phytolab), diphenidol (136 µM, Santa Cruz) or azelastine (24 µM, Sigma) as indicated. The supernatants were collected for further assays.
TNF-α, IL-6, IL-8 and MMP-1 release into the supernatant fluid 24 h after cell stimulation (either LAD-2 oder HaCaT cells) were measured by Enzyme-Linked Immunosorbent Assay (ELISA) using a commercial kit from R&D Systems according to the manual instructions.

LAD-2 human mast cells [5] = experiment: Degranulation assay: histamine release from SP-stimulated LAD-2 mast cells (ELISA); format: cell-based; conditions: SP 2 µM, 1 h, 30 min pre-incubation, amarogentin 136 µM, azelastine 24 µM (Figure 14A)
Protocol: as §2, with “assays. Mast cell degranulation was assessed by measuring histamine in” for “assays. TNF-α, IL-6, IL-8 and MMP-1 release into”, “fluid 1” for “fluid 24”, “stimulation with SP (2 µM). Histamine levels” for “stimulation (either LAD-2 oder HaCaT cells)”, “were assayed” for “were measured by Enzyme-Linked Immunosorbent Assay (ELISA)”, “a Histamine ELISA” for “a commercial kit”, “from IBL international.” for “from R&D Systems according to the manual instructions.”

[6] = system: keratinocyte cell line HaCaT; experiment: IL-6 and MMP-1 release from HaCaT stimulated with histamine and IFN-γ (ELISA); format: cell-based, human; conditions: histamine + IFN-γ (200U/ml), 24 h, amarogentin 136 µM, azelastine 24 µM (Figure 15B)
Protocol: as §3, with “assays. TNF-α, IL-6, IL-8 and MMP-1 release into the supernatant fluid 24 h after cell stimulation (either LAD-2 oder HaCaT cells) were measured by Enzyme-Linked Immunosorbent Assay (ELISA) using a commercial kit from R&D Systems according to the manual instructions.” for “assays.”

Protocol for HaCaT cells: as §4

expression of the differentiation marker keratin 10, involucrin und transglutaminase [3] | Compound | secretion of TNF-α (LAD-2 human mast cells [2]) | cytotoxicity (HaCaT cells) | cytotoxicity (LAD-2 cells) | histamine release (LAD-2 human mast cells [5]) | IL-6 production [6] | MMP-1 production [6] | also measured
– | CCCN(CCC)S(=O)(=O)c1ccc(C(=O)O)cc1 [probenecid] | – | – | – | – | – | – | PTC-induced calcium currents (T2R38; 1h pre-incubation with probenecid (1 mM), then PTC 100 µM, JEG-3 cells): reduces PTC-induced calcium currents to solvent level
increased | OC(CCCN1CCCCC1)(c1ccccc1)c1ccccc1 [diphenidol] | blocked the secretion of TNF-α | no cytotoxicity | – | – | – | – | calcium influx compared to the solvent control [1]: up to 7 fold; calcium influx compared to the solvent control (JEG-3 placental cells): up to 7 fold; calcium influx compared to the solvent control (HaCaT keratinocytes; 100 µM diphenidol, HaCaT, significant, maximum stated for all cell lines (Figure 8)): up to 7 fold; calcium influx (HaCaT keratinocytes; diphenidol 30 µM, fura-2 ratio before/after stimulation vs solvent (Figure 11)): significant calcium influx
– | NC(=S)Nc1ccccc1 [PTC, Phenylthiocarbamid] | – | – | – | – | – | – | calcium influx (T2R38; PTC 100 µM, JEG-3 cells (PAV taster), vs DMSO 0.05% (Figure 10)): induced calcium influx
increased | amarogentin | blocked the secretion of TNF-α | no cytotoxicity | no cytotoxicity | inhibits histamine release | decreased | decreased | release of IL-8 [4]: reduces the release; release of MMP-1 [4]: reduces the release; calcium influx (HaCaT keratinocytes; 100 µM amarogentin, vs 0.1% EtOH (Figure 11)): significant calcium influx
– | CN1CCCC(n2nc(Cc3ccc(Cl)cc3)c3ccccc3c2=O)CC1 (stereo not drawn) [azelastine] | blocked the secretion of TNF-α | – | no cytotoxicity | inhibits histamine release | decreased | decreased | –
